Experimental data: patent publication US5681817A, “Treatment of ovarian estrogen dependent conditions” (The Medical College of Hampton Roads, priority 1994, dated 1997)
Entries after “also recorded” stand apart in the source; their conditions may differ.

Experiments:
[1] = system: endometriosis; conditions: cited from earlier work
[2] = system: uterine leiomyomata; conditions: cited from earlier work
[3] = system: endometrial and vaginal epithelium; assay: Histological assessment of endometrium and vaginal epithelium (hematoxylin and eosin); format: in vivo, cynomolgus monkeys (Macaca facularis); conditions: for ENDOMETRIUM MENTRUAL PHASE / ENDOMETRIUM THICKNESS / VAGINAL EPITHELIUM AND KERATIN: histology; for ENDOMETRIUM MENTRUAL PHASE / ENDOMETRIUM THICKNESS: hematoxylin and eosin; for VAGINAL EPITHELIUM AND KERATIN: thickness
Description: Primates were divided equally into four treatment groups (N=8). Group 1 was given monthly injections of the gonadotropin releasing hormone agonist, in an amount of 80 μg/kg im on menstrual day 21 of the second laparotomy cycle. This was continued at 28 day intervals for a total of 3 injections, at which time weekly injections of the antiprogestin RU 486 began, (5 mg/kg im, in oil, initially, then 2 mg/kg/week). RU 486 was continued for a period of 24 weeks. Group 2 was given weekly im injections of RU 486 alone (5 mg/kg initially, then 2 mg/kg/week) beginning on menstrual day 1 of the cycle after the endometriosis was confirmed. This was continued for a treatment period of 36 weeks. Group 3 was given doses of the GnRH analog alone for 36 weeks. Group 4 was a control and received vehicle, 0.5 ml of normal saline im, weekly for 36 weeks. Vaginal epithelium was obtained at the time of each surgery using Kevorkian biopsy forceps taken from the lateral vaginal side of the upper two-thirds of the vagina. At the time of each laparotomy, a small repeat hysterotomy was performed for the purpose of endometrial sampling for histologic examination.

[4] = system: female cynomolgus monkeys; assay: Ovulation and serum estradiol/progesterone by RIA in monkeys with induced endometriosis; format: in vivo, cynomolgus monkeys (Macaca facularis); conditions: for mean tonic serum estradiol level: RIA, FIG. 1, control 40.6±43; for suppression of ovulation: treatment alone
Description: For the purposes of this study, the gonadotropin releasing hormone agonist selected was leuprolide acetate, the anti-progestin selected was RU 486 and these were administered to female cynomolgus monkeys, which are recognized to be a highly desirable model for human research.
Thirty-six adult female cynomolgus monkeys (Macaca facularis) having regular menstrual cycles were housed in individual cages which had food and water available ad librium.
(§1) Using anesthesia (ketamine 20 mg/kg im, xylazine, 1 mg/kg) on day 3 of the menstrual cycle, a diagnostic laparoscopy was performed to rule out pelvic adhesive disease or extant endometriosis. Monkeys with observable pelvic adhesions were excluded. Blood was collected on menstrual days 8-14 via venipuncture (ketamine 10 mg/kg im), and serum assayed for estradiol-17β by RIA. Laparotomy (ketamine 20 mg/kg, xylazine 1 mg/kg) was performed 3-5 days after a clearly defined pre-ovulatory estradiol peak. A 2 cm fundal hysterotomy was performed and approximately 100 mg of endometrium removed by curettage and minced in sterile 0.9% saline. The uterine incision was closed with 4-0 vicryl suture. The minced endometrial tissue was injected sub-peritoneally into five sites, namely, the left and right vesicouterine fold, right and left broad ligaments, and the cul-de-sac.
(§2) Primates were divided equally into four treatment groups (N=8). Group 1 was given monthly injections of the gonadotropin releasing hormone agonist, in an amount of 80 μg/kg im on menstrual day 21 of the second laparotomy cycle. This was continued at 28 day intervals for a total of 3 injections, at which time weekly injections of the antiprogestin RU 486 began, (5 mg/kg im, in oil, initially, then 2 mg/kg/week). RU 486 was continued for a period of 24 weeks.
(§3) Group 2 was given weekly im injections of RU 486 alone (5 mg/kg initially, then 2 mg/kg/week) beginning on menstrual day 1 of the cycle after the endometriosis was confirmed. This was continued for a treatment period of 36 weeks. Group 3 was given doses of the GnRH analog alone for 36 weeks. Group 4 was a control and received vehicle, 0.5 ml of normal saline im, weekly for 36 weeks.
Using ketamine anesthesia, blood was collected on alternate days in all groups for 28 days after the initial treatments following confirmation of active endometriosis. The serum was frozen for later analysis. Thereafter, blood was collected weekly. Blood draws continued until spontaneous menses resumed, or two months after the conclusion of injections, whichever came first. Serum was frozen, labelled, and stored for subsequent radioimmunoassay. Estradiol and progesterone were assayed using RIA (ICN Biomedical, Los Angeles, Calif.).

[5] = system: bone mineral density of the lumbar spine; assay: Dual X-ray absorptiometry bone mineral density of the lumbar spine; format: in vivo, cynomolgus monkeys (Macaca facularis); conditions: for change in bone density: after three months of treatment, group level; for bone density in fast bone losers: group 1 animals losing bone on GnRH analog (e.g. monkey 2190, FIG. 3), three months GnRH analog, then three months antiprogestin
Description: as §2, §3
Urine was collected at the time of blood sampling. The first sample was taken at the time of the first laparotomy and the second sample was taken at the time of the first injection with subsequent samples drawn every four weeks from the time of the second urine sample. Dual X-ray absorptiometry (DXA, Norland) was used to measure the bone mineral density of the lumbar spine. Primates were anesthetized with ketamine and restrained to minimize motion artifact. DXA was performed before injections began and at three month intervals until completion of the study.

[6] = system: peritoneal endometriosis (ectopic endometrial implants); assay: Area of ectopic endometrium on peritoneal surfaces at staging laparotomy; format: in vivo, cynomolgus monkeys (Macaca facularis); conditions: for area of ectopic endometrium on peritoneal surfaces / size of endometrial implants: post-treatment vs pre-treatment and vs control, FIG. 2, Wilcoxon p<0.05; for mean area of peritoneal disease after switch from GnRH analog to RU 486: Group 1, RU 486 for three months after the course of GnRH analog
Description: as §1
During the subsequent menstrual cycle, laparotomy was performed 3 to 5 days after the mid-cycle estradiol surge. The presence of ectopic endometrial tissue and the extent of adhesions were noted, with peritoneal implants carefully measured. Photographs of all lesions were taken and assigned a random number for later histological staging of the endometriosis by an independent observer. Biopsies were taken from representative lesions, and the tissue fixed in 10% formalin for histologic examination after hematoxylin and eosin staining.
as §2, §3
After daily injections began, a staging laparotomy was performed every 12 weeks until the end of therapy to assess the progression or regression of the disease.

SMILES: C#C[C@]1(O)CC[C@H]2[C@@H]3CCC4=Cc5oncc5C[C@]4(C)[C@H]3CC[C@@]21C [danazol, 17-α-pregna-2,4-dien-20-yno[2,3-d]-isoxazol-17-ol]
- side effects ([1]; in vivo): many androgenic side effects
- efficacy in treatment of endometriosis ([1]; producing a hypoestrogenic milieu): effective medication for the treatment of endometriosis

SMILES: CC(=O)O[C@]1(C(C)=O)CC[C@H]2[C@@H]3C[C@H](C)C4=CC(=O)CC[C@]4(C)[C@H]3CC[C@@]21C [medoxyprogesterone acetate]
- hot flashes and urinary calcium loss ([2]; add-back regimen with leuprolide): reduced
- total uterine volume ([2]; add-back regimen with leuprolide, not back to baseline values): modest increase
- effect on agonist-induced decrease of nonmyoma volume ([2]; concomitant treatment with leuprolide): reverse the effectiveness

SMILES: CCNC(=O)[C@@H]1CCCN1C(=O)[C@H](CCCNC(=N)N)NC(=O)[C@H](CC(C)C)NC(=O)[C@@H](CC(C)C)NC(=O)[C@H](Cc1ccc(O)cc1)NC(=O)[C@H](CO)NC(=O)[C@H](Cc1c[nH]c2ccccc12)NC(=O)[C@H](Cc1c[nH]cn1)NC(=O)[C@@H]1CCC(=O)N1 [GnRH analog, leuprolide acetate]
- ENDOMETRIUM MENTRUAL PHASE [3]: weakly proliferative
- ENDOMETRIUM THICKNESS [3]: uniformly thin
- ENDOMETRIUM THICKNESS ([3]; listed as ANALOG ONLY): THIN
- VAGINAL EPITHELIUM AND KERATIN [3]: THIN
- mean tonic serum estradiol level [4]: 24.2 ± 17 pg/mL
- suppression of ovulation [4]: suppression of ovulation
- change in bone density [5]: no change
- bone density in fast bone losers [5]: significant degree of bone loss
- area of ectopic endometrium on peritoneal surfaces / size of endometrial implants [6]: unequivocal limiting impact

SMILES: CC#C[C@]1(O)CC[C@H]2[C@@H]3CCC4=CC(=O)CCC4=C3[C@@H](c3ccc(N(C)C)cc3)C[C@@]21C [RU 486, mifepristone]
- vaginal atrophy ([3]; cynomolgus monkey, in vivo): not noted
- ENDOMETRIUM MENTRUAL PHASE [3]: interval phase
- ENDOMETRIUM THICKNESS ([3]; listed as antiprogestin): thinner than in control monkeys; also recorded: remained moderately thin
- VAGINAL EPITHELIUM AND KERATIN ([3]; listed as antiprogestin): greater in the antiprogestin group than in the GnRH analog groups; also recorded: thicker
- mean tonic serum estradiol level [4]: 57.8 ± 34.6 pg/mL
- suppression of ovulation [4]: suppression of ovulation
- bone density, PRE-TREATMENT (MEAN ± SD) ([5]; DXA lumbar spine, baseline before injections): 0.501 ± 0.029
- bone density, AFTER 3 MONTHS ([5]; DXA lumbar spine, mean ± SD, in group 1 the first 3 months are GnRH analog): 0.541 ± 0.033
- change in bone density [5]: marginally significant increase in bone density
- bone density in fast bone losers [5]: counteracted this loss; also recorded: returned to baseline
- mean area of peritoneal disease after switch from GnRH analog to RU 486 [6]: remained the unchanged
- mean area of peritoneal disease after switch from GnRH analog to RU 486 ([6]; listed as antiprogestin): able to sustain the reduced surface of peritoneal endometriosis
- area of ectopic endometrium on peritoneal surfaces / size of endometrial implants [6]: unequivocal limiting impact
